Measurements reported in article PMC9103184, “Kunitz-Type Peptides from Sea Anemones Protect Neuronal Cells against Parkinson’s Disease Inductors via Inhibition of ROS Production and ATP-Induced P2X7 Receptor Activation” (International Journal of Molecular Sciences, 2022).

System: P2X7R
Assay: ATP-induced YO-PRO-1 uptake in Neuro-2a cells
Type: cell-based, murine
Conditions: 0.01–1.0 μM, 4 mM ATP
Method: Figure 11 The effects of the peptides on ATP-induced Neuro-2a cell viability and activation of P2X7R. (a) Impact of the peptides on Neuro-2a cell viability in the presence of 4 mM ATP. The peptides were tested at concentrations of 0.01, 0.1, and 1.0 μM. Cells were incubated with peptides for 1 h at 37 °C, then for 48 h with ATP. (b) Effects of the peptides (0.01, 0.1, and 1.0 μM) on YO-PRO-1 uptake in Neuro-2a cells. ATP was used as a P2X7R agonist. A438079 (10 μM) was used as a standard inhibitor of P2X7R. The peptide effects were evaluated against the effects of ATP. The data are shown as means ± SE; *—p < 0.05 compared to the effect of ATP alone.
For the uptake measurements of the large cationic dye YO-PRO-1, the peptides at final concentrations of 0.01, 0.1, and 1.0 μM were added to the culture medium with Neuro-2a cells and further incubated for 1 h at 37 °C with 5% CO2. Then, the cells were washed once with Hanks’ balanced salt solution (HBSS) (140 mM NaCl, 5 mM KCl, 0.8 mM MgCl2, 2 mM CaCl2, 10 mM glucose, 10 mM HEPES, pH 7.4) and filled with 180 μL of the same buffer. YO-PRO-1 (Sigma-Aldrich, St. Louis, MO, USA) was loaded into the wells to a final concentration of 5 μM, the cells were incubated for 15 min at 37 °C, then ATP was added to a final concentration of 4 mM and the plates were incubated for an additional 10 min. Then, the cells were washed three times with the buffer solution and the fluorescence intensity levels were measured with a PHERAstar FS plate reader (BMG, Germany) at λex = 480 nm and λem = 520 nm. A438079 (10 μM), a standard inhibitor of P2X7R, was used as positive control. The effectiveness of the peptides was evaluated relative to the control with ATP.

## HCIQ2c1: recombinant Kunitz-type peptide from Heteractis crispa, UniProtKB ID A0A6B7FBD3 (IQGNICSEPKKVGRCRGSFPRFYFDSETGKCTPFIYGGCGGNGNNFETLHACRAICRA; UniProt A0A6B7FBD3 28-85, looked up)
  inhibition of ATP-induced YO-PRO-1 uptake: inhibited ATP-induced dye uptake, but their effects were not statistically significant
